We go through two compounds from patent publication USRE40086E1, “Method for treating bacterial infection with novel 7-substituted-9-substituted amino 6-demethyl-6-deoxytetracyclines” (Wyeth Holdings Corporation, priority 1991, dated 2008).

For orientation: ED50 means the midpoint of the dose-response relation.

One experiment relates to Haemophilus influenzae. Kind of experiment: MIC against clinical isolates (Table V, A and O). The experiment is classed as cell-based. The note with it: (18) tested.
For another experiment, the system named is S. aureus UBMS 90-2. The experiment can be described thus: In vivo antibacterial evaluation, acute lethal infection in mice. The note with it: Staphylococcus aureus, UBMS902, sc, read-out: ED50, median effective dose protecting 50% of the infected mice; mice infected with S. aureus UBMS 90-2 (tetM), single subcutaneous dosing. An excerpt:
(§1) In Vivo Antibacterial Evaluation (Table VII)

A further experiment concerns S. aureus UBMS 90-1. The description is as above. The note with it: Staphylococcus aureus, UBMS901, sc, read-out: ED50, median effective dose protecting 50% of the infected mice; mice infected with S. aureus UBMS 90-1 (tetM), single subcutaneous dosing.
Text: as §1

The test system of the next experiment is E. coli J2175. Kind of experiment: MIC, agar dilution (Table IA). The experiment is classed as cell-based. The note with it: unit assumed.
A further experiment has as its system E. coli PRP1 TetA. The experiment can be described thus: MIC, agar dilution (Table IA). The experiment is classed as cell-based. The note with it: unit assumed.
The test system of another experiment is E. coli #311 (MP). Kind of experiment: MIC, agar dilution (Table IA). The experiment is classed as cell-based. The note with it: unit assumed. In general terms: Agar dilution tests growth on a series of plates holding different concentrations.
In experiment [1] the test system is Wild Type S30 extract, E. coli strain MRE600 (tetracycline sensitive). Kind of experiment: E. coli in vitro transcription and protein translation, 35S-methionine incorporation (Table VIII).

Structures are written as SMILES. Counter-ions that a name gives are not always drawn.

As for `CN(C)c1ccc(O)c2c1C[C@H]1C[C@H]3[C@H](N(C)C)C(O)=C(C(N)=O)C(=O)[C@@]3(O)C(O)=C1C2=O` [Compound O, 7-(Dimethylamino)-6-demethyl-6-deoxytetracycline hydrochloride (minocycline hydrochloride), reference compound], in the experiment with Haemophilus influenzae, the MIC50 is 0.12 µg/mL, the MIC90 worked out at 0.25 µg/mL and the “MIC Range” value was in the range of 0.06 to 0.25 µg/mL. Also, the median effective dose (ED50) in the experiment on S. aureus UBMS 90-2 is 3 mg/kg. In the experiment on S. aureus UBMS 90-1, the ED50 stood at 1.7 mg/kg.
`CN(C)CC(=O)Nc1cc(N(C)C)c2c(c1O)C(=O)C1=C(O)[C@]3(O)C(=O)C(C(N)=O)=C(O)[C@@H](N(C)C)C3CC1C2.Cl.Cl` (stereo partly drawn) [KK, [4S-(4alpha,12aalpha)]-4,7-Bis(dimethylamino)-9-[[(dimethylamino)acetyl]amino]-1,4,4a,5,5a,6,11,12a-octahydro-3,10,12,12a-tetrahydroxy-1,11-dioxo-2-naphthacenecarboxamide dihydrochloride]: the Antibacterial activity (MIC) amounted to 0.25 µg/mL with E. coli J2175, 1 µg/mL in the experiment with E. coli PRP1 TetA and 0.25 µg/mL with E. coli #311 (MP). Also, the “% INHIBITION Wild Type S30” value amounted to 81% in experiment [1] (0.03 mg/ml), 82% in experiment [1] (0.06 mg/ml), 90% in experiment [1] (0.5 mg/ml) and 92% in experiment [1] (1.0 mg/ml).
